Experimental findings from ChEMBL document CHEMBL1201862, “PubChem BioAssay data set” (2004) are described below.

In assay [1] the target is Beta-lactamase (Pseudomonas aeruginosa, UniProt Q79MP6).
Assay [2] addresses Beta-lactamase (Salmonella choleraesuis (strain SC-B67), UniProt Q5J463).
Assay [3] has as its target T1, DNA repair and recombination protein RAD54-like (Homo sapiens, UniProt Q92698).
T1 sequence (Q92698 whole entry): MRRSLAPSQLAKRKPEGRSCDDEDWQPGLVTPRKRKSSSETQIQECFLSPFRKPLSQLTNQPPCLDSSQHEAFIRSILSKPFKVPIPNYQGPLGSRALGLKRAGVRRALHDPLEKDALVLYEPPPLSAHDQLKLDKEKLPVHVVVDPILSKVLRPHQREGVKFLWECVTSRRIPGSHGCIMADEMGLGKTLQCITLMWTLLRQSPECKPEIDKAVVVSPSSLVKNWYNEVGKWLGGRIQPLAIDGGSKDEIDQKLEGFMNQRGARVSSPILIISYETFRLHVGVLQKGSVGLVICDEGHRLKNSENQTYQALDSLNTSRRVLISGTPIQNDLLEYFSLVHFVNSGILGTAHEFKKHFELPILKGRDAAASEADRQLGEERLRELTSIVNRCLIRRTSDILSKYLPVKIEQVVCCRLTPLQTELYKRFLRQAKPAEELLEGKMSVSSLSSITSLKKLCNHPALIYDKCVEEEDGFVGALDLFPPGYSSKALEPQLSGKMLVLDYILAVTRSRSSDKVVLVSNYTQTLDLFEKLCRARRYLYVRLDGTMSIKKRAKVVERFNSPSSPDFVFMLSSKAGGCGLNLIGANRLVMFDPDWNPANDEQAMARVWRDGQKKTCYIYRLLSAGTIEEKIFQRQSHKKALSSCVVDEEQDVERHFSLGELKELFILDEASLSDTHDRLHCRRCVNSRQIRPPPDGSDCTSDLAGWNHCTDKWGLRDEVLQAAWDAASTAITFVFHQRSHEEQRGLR
Briefly: inhibitors of human RAD54 branch migration, confirmation, biochemical, fluorescence, cherry-picked samples, dose series (AID 651657). Type of assay: functional.

In assay [4] the target is DNA repair protein RAD52 homolog (Homo sapiens, UniProt P43351). The class given is functional, biochemical.
Assay [5] in a line: MDA-MB-231 cell growth inhibition, dose response, cytotoxicity control for RAD54 inhibitor project, CellTiter-Glo luminescence, cherry-pick (AID 651692). Type of assay: functional, cell-based. A general note: Cellular ATP, detected with luciferase, serves as a proxy for viable cell number.
Assay [6] can be described thus: HepG2 cell cytotoxicity, dose response, cytotoxicity control for Shn3 inhibitor project, CellTiter-Glo, cherry-picked (AID 624134). Type of assay: functional, cell-based.
A short description of assay [7]: Shn3 3'UTR reporter inhibitors, dose response, cell-based, Clone20 osteoblasts, firefly luciferase, cherry-picked (AID 624132).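 Further: firefly luciferase luminescence from reporter carrying the Shn3 3'UTR in osteoblasts.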 Type of assay: functional.
The target in the next assay is Beta Lactamase (Pseudomonas aeruginosa, UniProt Q932Y6). Briefly: beta-lactamase reporter inhibitor potency, dose response, artefact control for NOD2-RIPK2 interaction inhibitor project, BLA reporter cells, FRET fluorescence (AID 651552). Type of assay: functional, cell-based.
Another assay deals with Paired box protein Pax-8 (Homo sapiens, UniProt Q06710). Briefly: inhibitors of PAX8-driven TPO luciferase reporter, dose response, RMG-I cells, cherry-pick (AID 687027).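 Further: luciferase reporter driven by Pax8 target thyroperoxidase promoter measured by SteadyGlo luminescence.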 Type of assay: functional, cell-based. For orientation: A reporter such as luciferase makes a cellular process visible.
Assay [8] in a line: control 3'UTR Renilla luciferase suppression, dose response, counter-screen for Shn3 inhibitor project, cell-based, Clone20-Shn3RL, cherry-picked (AID 624133). The class given is functional. (A counterscreen serves to expose hits that act by an unwanted route or on another target.)
A short description of assay [9]: Fluorescence-based cell-based high throughput dose response assay for inhibitors of the interaction of nucleotide-binding oligomerization domain containing 2 (NOD2) and the receptor-interacting serine-threonine kinase 2 (RIPK2). Type of assay: functional. The conditions noted are these: Homo sapiens.
Assay [10] has as its target T2, ATP-dependent translocase ABCB1 (Homo sapiens, UniProt P08183). Briefly: ABCG2 efflux pump inhibitor potency, dose response, Ig-MXP3 cells, JC-1, flow cytometry, set 2 (AID 504566).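 Further: flow cytometry median green fluorescence of retained JC-1 dye; potency of efflux pump inhibition measured as rising substrate retention.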 The class given is functional. Conditions: read-out: EC50_MICROM_.
In assay [11] the target is T2, ATP-dependent translocase ABCB1. Briefly: ABCB1 efflux inhibitor potency, dose response, Jurkat-DNR cells, JC-1, flow cytometry, set 2 (AID 504569).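 Further: potency of pump inhibitors that raise cellular JC-1 green fluorescence up to the nicardipine level.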 Type of assay: functional. Conditions: read-out: EC50_MICROM_.
Assay [12] concerns the target T3, Sentrin-specific protease 8 (Homo sapiens, UniProt Q96LD8).
T3 sequence (Q96LD8 whole entry): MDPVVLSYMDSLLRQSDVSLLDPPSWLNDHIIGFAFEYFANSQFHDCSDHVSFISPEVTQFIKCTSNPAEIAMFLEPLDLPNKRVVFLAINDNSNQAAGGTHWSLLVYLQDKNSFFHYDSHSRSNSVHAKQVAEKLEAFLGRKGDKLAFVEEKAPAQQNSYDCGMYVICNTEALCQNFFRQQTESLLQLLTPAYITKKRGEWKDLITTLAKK
The class given is functional.

The target in assay [13] is T3, Sentrin-specific protease 8. Type of assay: functional. The source holds these as a separate data set.
A further assay concerns the target T4, Protein RecA (Mycobacterium tuberculosis, UniProt P9WHJ3).
T4 sequence (P9WHJ3 whole entry): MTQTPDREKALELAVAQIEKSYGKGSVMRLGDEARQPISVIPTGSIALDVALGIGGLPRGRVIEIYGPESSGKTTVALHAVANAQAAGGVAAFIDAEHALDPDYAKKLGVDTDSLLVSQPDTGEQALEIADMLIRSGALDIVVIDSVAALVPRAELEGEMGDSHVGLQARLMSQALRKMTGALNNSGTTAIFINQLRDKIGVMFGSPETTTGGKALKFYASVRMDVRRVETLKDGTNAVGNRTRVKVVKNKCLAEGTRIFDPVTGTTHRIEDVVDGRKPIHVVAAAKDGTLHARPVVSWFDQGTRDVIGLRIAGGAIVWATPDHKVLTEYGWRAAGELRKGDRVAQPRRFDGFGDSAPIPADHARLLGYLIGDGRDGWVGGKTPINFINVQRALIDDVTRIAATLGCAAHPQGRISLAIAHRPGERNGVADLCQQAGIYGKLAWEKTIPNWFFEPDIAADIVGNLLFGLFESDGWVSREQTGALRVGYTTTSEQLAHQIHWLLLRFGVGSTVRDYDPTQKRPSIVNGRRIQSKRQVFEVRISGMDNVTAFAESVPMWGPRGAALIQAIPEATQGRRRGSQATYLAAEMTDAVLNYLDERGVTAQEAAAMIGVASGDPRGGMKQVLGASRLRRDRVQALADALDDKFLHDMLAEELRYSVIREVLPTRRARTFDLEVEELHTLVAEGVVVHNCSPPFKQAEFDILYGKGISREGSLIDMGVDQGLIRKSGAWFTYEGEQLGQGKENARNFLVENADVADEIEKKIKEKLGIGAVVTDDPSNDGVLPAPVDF
Briefly: Fluorescence Cell-Free Homogeneous Dose Retest to Identify Inhibitors of RecA-Intein Splicing Activity. [Related pubchem assays (depositor defined):AID2097, AID2223, AID489010, AID492950]. The class given is functional.

The target in the next assay is T5, Caspase-3 (Homo sapiens, UniProt P42574).
T5 sequence (P42574 whole entry): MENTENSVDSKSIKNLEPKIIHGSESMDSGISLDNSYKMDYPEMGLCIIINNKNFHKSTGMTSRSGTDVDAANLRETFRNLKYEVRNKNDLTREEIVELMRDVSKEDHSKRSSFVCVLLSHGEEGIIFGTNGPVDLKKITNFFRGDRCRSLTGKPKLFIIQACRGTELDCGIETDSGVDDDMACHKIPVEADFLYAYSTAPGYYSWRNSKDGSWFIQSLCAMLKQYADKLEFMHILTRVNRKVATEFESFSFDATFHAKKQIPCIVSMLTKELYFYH
Briefly: Dose-response confirmation of uHTS inhibitor hits of Sentrin-Specific Protease 8 in a Caspase-3 Fluorescence assay. The class given is functional.

The target of assay [14] is T6, Replicative DNA helicase DnaB (Mycobacterium tuberculosis, UniProt P9WMR3).
T6 sequence (P9WMR3 whole entry): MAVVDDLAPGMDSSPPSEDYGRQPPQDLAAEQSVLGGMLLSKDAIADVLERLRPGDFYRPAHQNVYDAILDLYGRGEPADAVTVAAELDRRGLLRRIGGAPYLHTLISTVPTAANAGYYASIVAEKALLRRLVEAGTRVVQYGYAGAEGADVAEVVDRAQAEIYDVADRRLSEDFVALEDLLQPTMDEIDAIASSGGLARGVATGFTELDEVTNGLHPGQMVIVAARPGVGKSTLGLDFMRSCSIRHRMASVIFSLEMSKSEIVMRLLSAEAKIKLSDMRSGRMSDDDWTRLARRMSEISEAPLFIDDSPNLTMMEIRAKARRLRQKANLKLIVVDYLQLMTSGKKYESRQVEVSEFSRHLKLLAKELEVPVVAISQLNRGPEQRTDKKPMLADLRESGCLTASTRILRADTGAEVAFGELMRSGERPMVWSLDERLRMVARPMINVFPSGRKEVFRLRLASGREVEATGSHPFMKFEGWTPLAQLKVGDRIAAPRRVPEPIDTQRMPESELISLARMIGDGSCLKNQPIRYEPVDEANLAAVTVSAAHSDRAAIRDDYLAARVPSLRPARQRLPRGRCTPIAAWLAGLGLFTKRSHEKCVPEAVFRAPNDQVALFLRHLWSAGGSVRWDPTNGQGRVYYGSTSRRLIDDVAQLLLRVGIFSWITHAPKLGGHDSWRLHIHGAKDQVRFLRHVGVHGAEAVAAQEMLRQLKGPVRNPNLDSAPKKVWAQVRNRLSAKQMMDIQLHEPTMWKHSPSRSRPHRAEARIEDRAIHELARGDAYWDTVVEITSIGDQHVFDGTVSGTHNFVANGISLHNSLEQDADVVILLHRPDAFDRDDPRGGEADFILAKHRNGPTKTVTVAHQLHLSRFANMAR
Briefly: DnaB intein splicing inhibitors, dose response, biochemical, cell-free fluorescence (AID 449749). The class given is functional.

Assay [15] is described as follows: L. donovani amastigote growth inhibition, dose response, axenic amastigotes, plate reader, cherry pick (AID 651891). The class given is functional, cell-based. Conditions: Leishmania donovani.
Assay [16] in a line: Inhibition of T. cruzi Tulahuen strain amastigotes in L-6 muscle cells Measured in Cell-Based and Microorganism Combination System Using Plate Reader - 2138-03_Inhibitor_Dose_CherryPick_Activity. Type of assay: functional. Conditions: Rattus norvegicus, L6.
A short description of assay [17]: Inhibition of Plasmodium falciparum NF54 Measured in Cell-Based System Using Plate Reader - 2138-11_Inhibitor_Dose_CherryPick_Activity. The class given is functional.
Assay [18] can be described thus: intracellular Trypanosoma cruzi inhibitors in host cells – cell-based, plate reader, cherry-pick samples, set 3, dose response (AID 651818).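 Further: compounds incubated with infected cells for about four days.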 The class given is functional.
The nature of assay [19]: T. b. rhodesiense proliferation inhibition, dose response, STIB900 strain, plate reader, cherry pick (AID 651893). The class given is functional, cell-based. The conditions noted are these: Trypanosoma brucei.
Assay [20] can be described thus: cytotoxicity in L-6 rat myocytes, dose response, cytotoxicity control, cell-based, plate reader, cherry-pick (AID 651896). Type of assay: functional.
The target of assay [21] is Nuclear receptor subfamily 5 group A member 2 (Homo sapiens, UniProt O00482). The class given is functional, cell-based.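 Further: HEK293T cells transfected with LRH-1 and a StAR promoter luciferase reporter; potency for inhibitors that lower LRH-1 driven reporter light.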
The nature of assay [22]: StAR promoter reporter inhibition counter-screen, dose response, counter-screen for LRH-1 inverse agonist project, cell-based, luminescence, luciferase reporter (AID 651969). The class given is functional.
The target of the next assay is Steroidogenic factor 1 (Homo sapiens, UniProt Q13285). Briefly: Counterscreen for inverse agonists of the liver receptor homolog-1 (LRH-1; NR5A2): Luminescence-based cell-based high throughput dose response assay to identify inverse agonists of the Steroidogenic Factor 1 Nuclear Receptor (SF1; NR5A1). The class given is functional.

Active and inactive are the calls of the source. Bounds are passed on as bounds.

T2 sequence (P08183 whole entry): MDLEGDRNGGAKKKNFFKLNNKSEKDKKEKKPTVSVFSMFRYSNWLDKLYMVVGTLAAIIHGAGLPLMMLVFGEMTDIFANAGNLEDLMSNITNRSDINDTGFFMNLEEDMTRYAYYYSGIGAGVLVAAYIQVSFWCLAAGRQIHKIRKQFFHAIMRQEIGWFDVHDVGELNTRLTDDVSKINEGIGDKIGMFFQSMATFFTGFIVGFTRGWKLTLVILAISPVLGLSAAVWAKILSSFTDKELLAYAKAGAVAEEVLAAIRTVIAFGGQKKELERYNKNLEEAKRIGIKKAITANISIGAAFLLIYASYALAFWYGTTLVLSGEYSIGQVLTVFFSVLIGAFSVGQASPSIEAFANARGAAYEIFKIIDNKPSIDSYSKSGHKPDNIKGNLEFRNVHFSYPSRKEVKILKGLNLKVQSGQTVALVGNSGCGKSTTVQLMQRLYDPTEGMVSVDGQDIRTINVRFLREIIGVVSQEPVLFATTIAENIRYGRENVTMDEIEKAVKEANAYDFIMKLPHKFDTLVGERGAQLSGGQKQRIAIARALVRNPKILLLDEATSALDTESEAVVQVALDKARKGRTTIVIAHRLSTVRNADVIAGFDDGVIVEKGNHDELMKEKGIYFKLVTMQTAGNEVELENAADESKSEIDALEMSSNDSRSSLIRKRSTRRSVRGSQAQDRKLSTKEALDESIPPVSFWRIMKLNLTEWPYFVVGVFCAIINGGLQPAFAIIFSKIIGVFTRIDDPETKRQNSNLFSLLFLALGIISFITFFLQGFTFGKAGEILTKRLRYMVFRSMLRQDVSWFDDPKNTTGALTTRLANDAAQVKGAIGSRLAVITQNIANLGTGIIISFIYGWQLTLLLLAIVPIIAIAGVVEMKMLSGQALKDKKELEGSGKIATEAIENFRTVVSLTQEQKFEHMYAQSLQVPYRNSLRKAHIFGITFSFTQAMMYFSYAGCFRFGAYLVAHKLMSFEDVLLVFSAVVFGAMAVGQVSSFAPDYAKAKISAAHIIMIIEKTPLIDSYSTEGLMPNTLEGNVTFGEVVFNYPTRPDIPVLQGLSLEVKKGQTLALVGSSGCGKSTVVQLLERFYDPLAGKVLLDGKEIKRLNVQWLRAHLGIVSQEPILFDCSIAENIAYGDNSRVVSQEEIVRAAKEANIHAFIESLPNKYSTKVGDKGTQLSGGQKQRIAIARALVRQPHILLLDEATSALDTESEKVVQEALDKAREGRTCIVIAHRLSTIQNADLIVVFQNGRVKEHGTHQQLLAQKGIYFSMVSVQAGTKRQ
Nuclear receptor subfamily 5 group A member 2, sequence (O00482 whole entry): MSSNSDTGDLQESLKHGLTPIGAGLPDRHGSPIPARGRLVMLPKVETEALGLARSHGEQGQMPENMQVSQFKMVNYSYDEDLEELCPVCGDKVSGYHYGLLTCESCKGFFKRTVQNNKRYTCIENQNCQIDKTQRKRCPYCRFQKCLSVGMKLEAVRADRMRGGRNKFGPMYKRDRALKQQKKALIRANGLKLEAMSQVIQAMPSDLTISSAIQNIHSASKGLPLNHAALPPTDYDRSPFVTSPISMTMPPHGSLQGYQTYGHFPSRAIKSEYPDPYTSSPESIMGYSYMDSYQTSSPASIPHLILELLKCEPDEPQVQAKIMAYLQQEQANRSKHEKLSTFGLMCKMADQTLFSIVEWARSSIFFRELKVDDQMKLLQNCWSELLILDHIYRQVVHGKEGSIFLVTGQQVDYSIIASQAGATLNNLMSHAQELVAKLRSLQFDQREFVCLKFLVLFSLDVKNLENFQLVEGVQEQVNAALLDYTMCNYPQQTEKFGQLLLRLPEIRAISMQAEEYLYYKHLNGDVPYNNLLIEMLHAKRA
Paired box protein Pax-8, sequence (Q06710 whole entry): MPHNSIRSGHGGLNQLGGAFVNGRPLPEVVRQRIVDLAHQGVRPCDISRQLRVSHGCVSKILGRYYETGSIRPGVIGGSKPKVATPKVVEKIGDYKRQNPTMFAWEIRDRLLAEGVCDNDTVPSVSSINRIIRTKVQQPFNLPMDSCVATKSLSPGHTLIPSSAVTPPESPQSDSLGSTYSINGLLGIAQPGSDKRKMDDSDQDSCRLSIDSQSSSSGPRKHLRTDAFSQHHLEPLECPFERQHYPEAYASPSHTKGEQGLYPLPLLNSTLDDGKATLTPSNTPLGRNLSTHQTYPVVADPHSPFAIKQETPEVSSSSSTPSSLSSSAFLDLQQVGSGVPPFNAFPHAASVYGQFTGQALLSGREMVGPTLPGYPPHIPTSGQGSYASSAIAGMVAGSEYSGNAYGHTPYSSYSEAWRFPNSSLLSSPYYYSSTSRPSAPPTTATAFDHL
Beta-lactamase (Pseudomonas aeruginosa, UniProt Q79MP6), sequence (Q79MP6 whole entry): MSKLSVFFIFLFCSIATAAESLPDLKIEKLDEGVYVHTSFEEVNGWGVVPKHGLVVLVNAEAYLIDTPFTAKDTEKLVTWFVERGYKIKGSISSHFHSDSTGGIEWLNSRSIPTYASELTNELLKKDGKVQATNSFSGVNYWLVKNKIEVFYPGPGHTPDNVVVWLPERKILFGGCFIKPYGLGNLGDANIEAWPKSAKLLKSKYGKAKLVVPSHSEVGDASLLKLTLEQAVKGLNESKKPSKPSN
Beta-lactamase (Salmonella choleraesuis (strain SC-B67), UniProt Q5J463), sequence (Q5J463 whole entry): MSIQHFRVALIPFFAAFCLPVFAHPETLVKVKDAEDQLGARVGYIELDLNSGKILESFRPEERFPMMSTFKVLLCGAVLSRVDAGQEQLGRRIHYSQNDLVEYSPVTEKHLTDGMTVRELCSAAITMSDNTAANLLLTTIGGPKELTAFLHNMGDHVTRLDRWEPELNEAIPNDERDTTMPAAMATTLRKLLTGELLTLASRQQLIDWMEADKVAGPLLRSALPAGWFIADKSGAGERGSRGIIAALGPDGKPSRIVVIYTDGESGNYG
DNA repair protein RAD52 homolog, sequence (P43351 whole entry): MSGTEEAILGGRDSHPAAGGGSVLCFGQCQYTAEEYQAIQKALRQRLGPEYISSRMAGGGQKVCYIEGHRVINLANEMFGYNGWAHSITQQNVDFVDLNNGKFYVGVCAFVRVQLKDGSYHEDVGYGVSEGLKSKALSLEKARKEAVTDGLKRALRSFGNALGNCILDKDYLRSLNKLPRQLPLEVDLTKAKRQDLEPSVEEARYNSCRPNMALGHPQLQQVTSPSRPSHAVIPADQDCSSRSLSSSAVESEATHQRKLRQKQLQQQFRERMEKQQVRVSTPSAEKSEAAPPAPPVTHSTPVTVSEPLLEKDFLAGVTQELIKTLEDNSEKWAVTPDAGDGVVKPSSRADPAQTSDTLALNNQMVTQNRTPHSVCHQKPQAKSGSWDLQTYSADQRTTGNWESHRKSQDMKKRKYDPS
Beta Lactamase, sequence (Q932Y6 whole entry): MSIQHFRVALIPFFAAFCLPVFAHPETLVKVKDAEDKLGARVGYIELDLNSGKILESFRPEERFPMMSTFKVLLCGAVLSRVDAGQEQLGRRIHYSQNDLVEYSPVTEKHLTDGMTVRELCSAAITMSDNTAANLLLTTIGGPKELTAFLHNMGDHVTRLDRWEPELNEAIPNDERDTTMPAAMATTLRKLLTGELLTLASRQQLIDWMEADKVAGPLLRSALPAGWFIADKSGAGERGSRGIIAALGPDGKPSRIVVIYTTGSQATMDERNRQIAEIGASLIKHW
Steroidogenic factor 1, sequence (Q13285 whole entry): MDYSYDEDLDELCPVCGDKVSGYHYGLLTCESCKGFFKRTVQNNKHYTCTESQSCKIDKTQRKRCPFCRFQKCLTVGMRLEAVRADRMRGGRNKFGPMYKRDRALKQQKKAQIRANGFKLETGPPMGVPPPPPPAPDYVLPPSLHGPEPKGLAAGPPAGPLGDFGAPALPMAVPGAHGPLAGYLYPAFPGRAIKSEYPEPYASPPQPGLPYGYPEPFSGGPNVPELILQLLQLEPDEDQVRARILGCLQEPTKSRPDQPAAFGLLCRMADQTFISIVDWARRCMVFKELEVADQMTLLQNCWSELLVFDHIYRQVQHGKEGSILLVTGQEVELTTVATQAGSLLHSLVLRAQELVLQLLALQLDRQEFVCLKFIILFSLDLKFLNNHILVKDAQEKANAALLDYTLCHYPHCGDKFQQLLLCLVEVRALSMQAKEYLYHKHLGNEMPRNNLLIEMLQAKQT

By IC50 is commonly meant the concentration that gives 50% inhibition. Regarding `CC(C)(C)c1ccc(-c2c(C(=O)O)c(C(=O)O)c3n2CSC3)cc1`, the IC50 is 35.1 µM (inactive) on Beta-lactamase [1] and > 59.6 µM (inactive) at Beta-lactamase [2].

Broadly, the AC50 is the midpoint of the concentration-response curve, whichever way the signal moves. Turning to `COc1cc2ccccc2cc1C(=O)N(CCN(C)C)c1nc2c(OC)ccc(OC)c2s1`, the results for the AC50 in [3], in assay [4] and in assay [5] were 100 µM (inactive), 7.36 µM (active) and 18.1 µM (active), respectively.

For `CC1CC(C)CC(C)C(O)C(C#N)=CC=CCC(C2CCCC2C(=O)O)OC(=O)CC(O)C(C)C1` (configuration not stated), the AC50 in [6] is 10.2 µM (active); in [7] it was < 0.26 µM (active); on Paired box protein Pax-8, < 0.26 µM (active); in [8] it was 1.08 µM (active). Also, the IC50 (on Beta Lactamase; in [9]) was 49.8 µM (inactive) throughout.

`O=C(Cc1ccccc1)N1CCN(c2cc(-c3ccccc3)nc3cc(-c4cccc(Cl)c4)nn23)CC1`: the results for the EC50 in assay [10] and in assay [11] were 7.42 µM (active) and 3.62 µM (active), respectively.

On to `COc1ccc(-c2csc(CCN3N=C(C)CC3=O)n2)cc1`, for which the IC50 in assay [12] was 12.1 µM (active); in assay [13] it was 14.6 µM (active); at Caspase-3 it was 100 µM (inactive). The EC50 at Protein RecA is 1.54 µM (active). Also, in [14], the AC50 is 3.27 µM (active).

Take `C[C@H](CO)N1C[C@H](C)[C@H](CN(C)Cc2ccccc2)Oc2c(NC(=O)c3ccncc3)cccc2C1=O`: the IC50 was > 100 µM (inactive) in [15]; 20.6 µM (inactive) in assay [16]; 20.6 µM (inactive) in assay [17]; 75.4 µM (inactive) in assay [19]; > 100 µM (inactive) in assay [20]. Moreover, in assay [18], the AC50 is 0.208 µM (active).

For the molecule `CCCN(CC(=O)Nc1ccc(C(C)=O)cc1)CC(=O)Nc1ccccc1C`, the IC50 was 12 µM (inactive) in assay [21], 35.9 µM (inactive) in assay [22] and 0.941 µM (active) on Steroidogenic factor 1.
